Common to all, as to assay type: cell-based
One assay has as its target T1, KRAS G12D (Homo sapiens, UniProt P01116, G12D).
T1 construct: AsPc-1-KRAS (G12D)-HiBit-KI cell (Pharmaron); host or cells: AsPc-1-KRAS (G12D)-HiBit-KI cells (HiBiT knock-in at the endogenous KRAS locus)
Briefly: KRAS G12D HiBit assay. The settings on record: AsPc-1-KRAS (G12D)-HiBit-KI cell, compound treatment for 24 hours, absolute DC50. Put shortly: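 Cells were treated for 24 h with compounds in a 3-fold, 10-point dilution series from a 0.3 mM DMSO stock, then equilibrated 15 min at room temperature. KRAS G12D HiBiT levels were read by luminescence after lytic Nano-Glo HiBiT reagent with LgBiT; inhibition calculated relative to 0.1% DMSO high control.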
For orientation: HiBiT is a short tag that completes a luciferase, so light tracks the accessible tagged protein.

A further assay concerns the target T2, KRAS G12V (Homo sapiens, UniProt P01116, G12V).
T2 construct: SW620-KRAS (G12V)-HiBit-KI cell (Pharmaron); host or cells: SW620-KRAS (G12V)-HiBit-KI cells (HiBiT knock-in at the endogenous KRAS locus)
Briefly: KRAS G12V HiBit assay. Conditions: SW620-KRAS (G12V)-HiBit-KI cells, compound treatment for 24 hours, class symbols. In short, it runs like this: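 HiBiT-tagged KRAS G12V cells treated 24 h with compound in a 3-fold, 10-point series (0.3 mM DMSO stock); lytic HiBiT reagent with LgBiT added after 15 min room-temperature equilibration. Degradation calculated against 0.1% DMSO high control.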

The target of a further assay is T3, KRAS (Homo sapiens, UniProt P01116).
T3 construct: endogenous in cells; host or cells: KE39 (KRAS amplified) cells
T3 sequence (P01116 1-188 isoform P01116-2): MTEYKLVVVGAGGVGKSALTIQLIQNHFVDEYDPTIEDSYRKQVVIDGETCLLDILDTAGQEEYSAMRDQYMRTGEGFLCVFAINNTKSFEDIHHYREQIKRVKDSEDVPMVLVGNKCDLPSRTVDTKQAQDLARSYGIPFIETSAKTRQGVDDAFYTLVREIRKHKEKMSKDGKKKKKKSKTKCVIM
The assay is described as follows: KRASamp MSD assay. The settings on record: KE39 (KRAS amplified) cells, treated with test compounds for 24 hr, MSD readout of KRAS degradation. Put shortly: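 KRAS-amplified KE39 cells treated with compound for 24 hr, then lysed in RIPA buffer with protease/phosphatase inhibitors. KRAS protein measured by MSD sandwich immunoassay against a recombinant WT KRAS standard curve; DC50 derived from curve fitting of degradation.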

The mark [1] stands for this setting: numeric bounds given in place of class symbols.

The text below walks through data of patent publication US12599672B2, “KRAS proteolysis targeting chimeras” (PAQ Therapeutics Inc., priority 2023, dated 2026).

T2 sequence (P01116 1-188 isoform P01116-2 G12V): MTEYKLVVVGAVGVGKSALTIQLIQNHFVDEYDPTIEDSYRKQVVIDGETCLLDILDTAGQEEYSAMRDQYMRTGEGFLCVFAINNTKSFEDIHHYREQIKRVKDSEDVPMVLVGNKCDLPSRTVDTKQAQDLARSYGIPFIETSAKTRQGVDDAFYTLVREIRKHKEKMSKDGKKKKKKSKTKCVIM
T1 sequence (P01116 1-188 isoform P01116-2 G12D): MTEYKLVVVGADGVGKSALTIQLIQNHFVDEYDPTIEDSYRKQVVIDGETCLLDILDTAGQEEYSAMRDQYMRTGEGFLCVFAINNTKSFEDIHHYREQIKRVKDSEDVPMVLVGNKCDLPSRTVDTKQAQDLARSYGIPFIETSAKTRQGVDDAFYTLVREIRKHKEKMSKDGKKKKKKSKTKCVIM

For `CCc1c(F)ccc2cc(O)cc(-c3ncc4c(N5CCC[C@@H](N)C5)nc(OC[C@@]56CCCN5[C@H](COC(=O)N5CCC7(CC5)CC(N5CCC(c8ccc9c(c8)n(C)c(=O)n9C8CCC(=O)NC8=O)CC5)C7)CC6)nc4c3F)c12` (stereo partly drawn) [Compound 476, ((3S,7aS)-7a-(((4-((R)-3-aminopiperidin-1-yl)-7-(8-ethyl-7-fluoro-3-hydroxynaphthalen-1-yl)-8-fluoropyrido[4,3-d]pyrimidin-2-yl)oxy)methyl)hexahydro-1H-pyrrolizin-3-yl)methyl 2-(4-(1-(2,6-dioxopiperidin-3-yl)-3-methyl-2-oxo-2,3-dihydro-1H-benzo[d]imidazol-5-yl)piperidin-1-yl)-7-azaspiro[3.5]nonane-7-carboxylate], the DC50 at KRAS G12D (class symbols) was under 100 nM; at KRAS G12V it was under 10 nM; at KRAS, 1 to 10 nM.
For `CCc1c(F)ccc2cc(O)cc(-c3ncc4c(N5CCC[C@@](C)(O)C5)nc(OC[C@@]56CCCN5[C@H](COC(=O)N5CC7(CCN(CC8CCN(c9ccc%10c(c9)n(C)c(=O)n%10C9CCC(=O)NC9=O)CC8)CC7)C5)CC6)nc4c3F)c12` (stereo partly drawn) [Compound 452, ((3S,7aS)-7a-(((7-(8-ethyl-7-fluoro-3-hydroxynaphthalen-1-yl)-8-fluoro-4-((R)-3-hydroxy-3-methylpiperidin-1-yl)pyrido[4,3-d]pyrimidin-2-yl)oxy)methyl)hexahydro-1H-pyrrolizin-3-yl)methyl 7-((1-(1-(2,6-dioxopiperidin-3-yl)-3-methyl-2-oxo-2,3-dihydro-1H-benzo[d]imidazol-5-yl)piperidin-4-yl)methyl)-2,7-diazaspiro[3.5]nonane-2-carboxylate], in that order: under 100 nM, under 10 nM and under 1 nM.
In the same order, the values of `Cn1c(=O)n(C2CCC(=O)NC2=O)c2ccc(N3CCC(CN4CCN(C(=O)OC[C@@H]5CC[C@]6(COc7nc(N8CCC[C@@](C)(O)C8)c8cnc(-c9cc(O)cc%10ccc(F)cc9%10)c(F)c8n7)CCCN56)CC4)CC3)cc21` (stereo partly drawn) [Compound 445, ((3S,7aS)-7a-(((8-fluoro-7-(7-fluoro-3-hydroxynaphthalen-1-yl)-4-((R)-3-hydroxy-3-methylpiperidin-1-yl)pyrido[4,3-d]pyrimidin-2-yl)oxy)methyl)hexahydro-1H-pyrrolizin-3-yl)methyl 4-((1-(1-(2,6-dioxopiperidin-3-yl)-3-methyl-2-oxo-2,3-dihydro-1H-benzo[d]imidazol-5-yl)piperidin-4-yl)methyl)piperazine-1-carboxylate] are under 100 nM, under 10 nM and under 1 nM.
For `CCc1c(F)ccc2cc(O)cc(-c3ncc4c(N5CCCCC5)nc(OC[C@@]56CCCN5[C@H](CN5CCC(CN7CCC(c8ccc9c(c8)n(C)c(=O)n9C8CCC(=O)NC8=O)CC7)CC5)CC6)nc4c3F)c12` (stereo partly drawn) [Compound 379, 3-(5-(1-((1-(((3S,7aS)-7a-(((7-(8-ethyl-7-fluoro-3-hydroxynaphthalen-1-yl)-8-fluoro-4-(piperidin-1-yl)pyrido[4,3-d]pyrimidin-2-yl)oxy)methyl)hexahydro-1H-pyrrolizin-3-yl)methyl)piperidin-4-yl)methyl)piperidin-4-yl)-3-methyl-2-oxo-2,3-dihydro-1H-benzo[d]imidazol-1-yl)piperidine-2,6-dione], in that order: under 100 nM, under 10 nM and under 1 nM.
Regarding `CCc1c(F)ccc2cc(O)cc(-c3ncc4c(N5CC6(CCC6)C5)nc(OC[C@@]56CCCN5[C@H](COC(=O)N5CCC7(CC5)CC(N5CCC(c8ccc9c(c8)n(C)c(=O)n9C8CCC(=O)NC8=O)CC5)C7)CC6)nc4c3F)c12` (stereo partly drawn) [Compound 347, ((3S,7aS)-7a-(((7-(8-ethyl-7-fluoro-3-hydroxynaphthalen-1-yl)-8-fluoro-4-(2-azaspiro[3.3]heptan-2-yl)pyrido[4,3-d]pyrimidin-2-yl)oxy)methyl)hexahydro-1H-pyrrolizin-3-yl)methyl 2-(4-(1-(2,6-dioxopiperidin-3-yl)-3-methyl-2-oxo-2,3-dihydro-1H-benzo[d]imidazol-5-yl)piperidin-1-yl)-7-azaspiro[3.5]nonane-7-carboxylate], the DC50 at KRAS G12D (setting [1]) was over 100 nM; at KRAS G12V, over 100 nM; on KRAS, at least 10 nM.
For `CCc1c(F)ccc2cc(O)cc(-c3ncc4c(N5CCC[C@@](C)(O)C5)nc(OC[C@@]56CCCN5[C@H](CN5CCC(CN7CCC(c8ccc9c(c8)n(C)c(=O)n9C8CCC(=O)NC8=O)CC7)CC5)CC6)nc4c3F)c12` (stereo partly drawn) [Compound 402, 3-(5-(1-((1-(((35,7aS)-7a-(((7-(8-Ethyl-7-fluoro-3-hydroxynaphthalen-1-yl)-8-fluoro-4-((R)-3-hydroxy-3-methylpiperidin-1-yl)pyrido[4,3-d]pyrimidin-2-yl)oxy)methyl)hexahydro-1H-pyrrolizin-3-yl)methyl)piperidin-4-yl)methyl)piperidin-4-yl)-3-methyl-2-oxo-2,3-dihydro-1H-benzo[d]imidazol-1-yl) piperidine-2,6-dione], the DC50 on KRAS G12D (class symbols) is under 100 nM; at KRAS G12V it was 10 to 100 nM; at KRAS, 1 to 10 nM.
For `CCc1c(F)ccc2cc(O)cc(-c3ncc4c(N5CCC[C@](C)(N)C5)nc(OC[C@@]56CCCN5[C@H](COC(=O)N5CCC7(CC5)CC(N5CCC(c8ccc9c(c8)n(C)c(=O)n9C8CCC(=O)NC8=O)CC5)C7)CC6)nc4c3F)c12` (stereo partly drawn) [Compound 478, ((3S,7aS)-7a-(((4-((S)-3-amino-3-methylpiperidin-1-yl)-7-(8-ethyl-7-fluoro-3-hydroxynaphthalen-1-yl)-8-fluoropyrido[4,3-d]pyrimidin-2-yl)oxy)methyl)hexahydro-1H-pyrrolizin-3-yl)methyl 2-(4-(1-(2,6-dioxopiperidin-3-yl)-3-methyl-2-oxo-2,3-dihydro-1H-benzo[d]imidazol-5-yl)piperidin-1-yl)-7-azaspiro[3.5]nonane-7-carboxylate], in that order: under 100 nM, under 10 nM and under 1 nM.
In the same order, the values of `C#Cc1c(F)ccc2cc(O)cc(-c3ncc4c(N5CCC[C@@](C)(O)C5)nc(OC[C@@]56CCCN5[C@H](COC(=O)N5CCC7(CCC(CN8CCC(c9ccc%10c(c9)n(C)c(=O)n%10C9CCC(=O)NC9=O)CC8)CC7)CC5)CC6)nc4c3F)c12` (stereo partly drawn) [Compound 321, ((3S,7aS)-7a-(((7-(8-ethynyl-7-fluoro-3-hydroxynaphthalen-1-yl)-8-fluoro-4-((R)-3-hydroxy-3-methylpiperidin-1-yl)pyrido[4,3-d]pyrimidin-2-yl)oxy)methyl)hexahydro-1H-pyrrolizin-3-yl)methyl 9-((4-(1-(2,6-dioxopiperidin-3-yl)-3-methyl-2-oxo-2,3-dihydro-1H-benzo[d]imidazol-5-yl)piperidin-1-yl)methyl)-3-azaspiro[5.5]undecane-3-carboxylate] are under 100 nM, under 10 nM and 1 to 10 nM.
Turning to `Cn1c(=O)n(C2CCC(=O)NC2=O)c2cc(F)c(C3CCN(CC4CCN(C(=O)OC[C@@H]5CC[C@]6(COc7nc(N8CCC[C@@](C)(O)C8)c8cnc(-c9cc(O)cc%10ccc(F)cc9%10)c(F)c8n7)CCCN56)CC4)CC3)cc21` (stereo partly drawn) [Compound 447, ((3S,7aS)-7a-(((8-fluoro-7-(7-fluoro-3-hydroxynaphthalen-1-yl)-4-((R)-3-hydroxy-3-methylpiperidin-1-yl)pyrido[4,3-d]pyrimidin-2-yl)oxy)methyl)hexahydro-1H-pyrrolizin-3-yl)methyl 4-((4-(1-(2,6-dioxopiperidin-3-yl)-6-fluoro-3-methyl-2-oxo-2,3-dihydro-1H-benzo[d]imidazol-5-yl)piperidin-1-yl)methyl)piperidine-1-carboxylate], the DC50 at KRAS G12D (class symbols) is under 100 nM; at KRAS G12V, under 10 nM; at KRAS it was under 1 nM.
As for `C#Cc1c(F)ccc2cc(O)cc(-c3ncc4c(N5CCC[C@@](C)(O)C5)nc(OC[C@@]56CCCN5[C@H](COC(=O)NC5CCN(C7CCN(c8ccc9c(c8)n(C)c(=O)n9C8CCC(=O)NC8=O)CC7)CC5)CC6)nc4c3F)c12` (stereo partly drawn) [Compound 324, ((3S,7aS)-7a-(((7-(8-ethynyl-7-fluoro-3-hydroxynaphthalen-1-yl)-8-fluoro-4-((R)-3-hydroxy-3-methylpiperidin-1-yl)pyrido[4,3-d]pyrimidin-2-yl)oxy)methyl)hexahydro-1H-pyrrolizin-3-yl)methyl (1′-(1-(2,6-dioxopiperidin-3-yl)-3-methyl-2-oxo-2,3-dihydro-1H-benzo[d]imidazol-5-yl)-[1,4′-bipiperidin]-4-yl)carbamate], the DC50 was over 100 nM at KRAS G12D (setting [1]), over 100 nM on KRAS G12V and at least 10 nM at KRAS.
